Reference: patent US20240025922A1, “TETRAHYDROPYRIDO[3,4-d]PYRIMIDINES AS HPK1 INHIBITORS” (Merck Patent GmbH, priority 2022, published 2024)
Like-named read-outs stand apart in the source and are kept apart here.

Assays:
[1] = target: full-length human HPK1 (MAP4K1) (Homo sapiens (Human), UniProt Q92918); assay: HPK1 Kinase Assay (Biochemical Assay), ADP-Glo; settings: GST-HPK1 3.2 nM, 10 μM ATP, MBP substrate, read-out: HPK1 enzymatic IC50
Summary of the method: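 ADP-Glo luminescence after a 120-min kinase reaction gave percent inhibition and IC50. The enzyme was Sf21-expressed N-terminal GST full-length human HPK1 at 3.2 nM in HEPES pH 7.5 buffer with MgCl2, DTT, Brij-35 and BSA.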

[2] = target: HPK1 (SLP76 phosphorylation at Ser376 in Jurkat and EL-4 cells) (Homo sapiens, UniProt Q92918); format: cell-based
Chain of HPK1 (SLP76 phosphorylation at Ser376 in Jurkat and EL-4 cells) (Q92918 whole entry, looked up): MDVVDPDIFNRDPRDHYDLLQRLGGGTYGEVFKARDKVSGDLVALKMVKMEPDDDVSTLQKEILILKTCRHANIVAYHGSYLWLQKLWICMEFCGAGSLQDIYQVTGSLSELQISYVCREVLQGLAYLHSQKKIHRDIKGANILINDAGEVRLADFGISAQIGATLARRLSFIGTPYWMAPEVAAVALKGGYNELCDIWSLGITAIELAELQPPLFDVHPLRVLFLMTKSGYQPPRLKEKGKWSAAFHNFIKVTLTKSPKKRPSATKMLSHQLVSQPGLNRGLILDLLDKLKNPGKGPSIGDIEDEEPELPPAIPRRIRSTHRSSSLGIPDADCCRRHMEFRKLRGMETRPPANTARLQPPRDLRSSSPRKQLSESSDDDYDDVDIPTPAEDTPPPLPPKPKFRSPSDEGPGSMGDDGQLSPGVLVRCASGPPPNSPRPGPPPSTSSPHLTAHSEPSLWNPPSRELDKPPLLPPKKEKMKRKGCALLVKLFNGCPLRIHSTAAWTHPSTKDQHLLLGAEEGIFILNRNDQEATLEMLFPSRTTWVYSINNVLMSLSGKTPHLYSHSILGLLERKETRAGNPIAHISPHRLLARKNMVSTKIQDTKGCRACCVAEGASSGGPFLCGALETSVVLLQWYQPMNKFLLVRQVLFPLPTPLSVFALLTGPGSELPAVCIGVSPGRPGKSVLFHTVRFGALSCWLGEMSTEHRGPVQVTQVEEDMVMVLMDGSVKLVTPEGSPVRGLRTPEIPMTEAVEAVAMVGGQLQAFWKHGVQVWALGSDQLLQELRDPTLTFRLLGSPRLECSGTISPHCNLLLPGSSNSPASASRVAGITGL
Summary of the method: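 Phospho-SLP76 (Ser376) in lysates measured by AlphaLISA for human Jurkat and by 19 h HTRF for mouse EL-4, giving % inhibition and IC50. Compounds applied 60 min before αCD3/αCD28 bead stimulation at 37 °C, lasting 15 min (Jurkat) or 30 min (EL-4).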

[3] = αCD3/αCD28 Dynabeads stimulated cells, pSLP76 (Ser376) detection; read-out: HPK1 pSLP76 IC50
[4] = read-out: HPK1 pSLP76 IC50; αCD3/αCD28 Dynabeads stimulated cells, pSLP76 (Ser376) detection

Chain of full-length human HPK1 (MAP4K1) (Q92918 whole entry): as the sequence (Q92918 whole entry, looked up) above

Row | SMILES | IC50 [1] | IC50 [2, 3] | IC50 [2, 4]
1 | Cc1c(N2CCc3cnc(Nc4ccc5c(c4)COC5)nc3C2)cnc2c1NCCO2 [Example 92, N-(1,3-dihydroisobenzofuran-5-yl)-7-(8-methyl-2,3-dihydro-1H-pyrido[2,3-b][1,4]oxazin-7-yl)-5,6,7,8-tetrahydropyrido[3,4-d]pyrimidin-2-amine] | < 100 nM | 500 to 1000 nM | 
2 | Cc1c(N2CCc3cnc(Nc4ccc5c(c4)C(C)(C)OC5)nc3C2)cnc2c1NCCO2 [Example 93, N-(3,3-dimethyl-1,3-dihydroisobenzofuran-5-yl)-7-(8-methyl-2,3-dihydro-1H-pyrido[2,3-b][1,4]oxazin-7-yl)-5,6,7,8-tetrahydropyrido[3,4-d]pyrimidin-2-amine] | < 100 nM |  | < 500 nM
3 | Cc1c(N2CCc3cnc(Nc4ccc(OC5CCOCC5)cc4)nc3C2)cnc2c1NCCO2 [Example 94, 7-(8-methyl-2,3-dihydro-1H-pyrido[2,3-b][1,4]oxazin-7-yl)-N-(4-((tetrahydro-2H-pyran-4-yl)oxy)phenyl)-5,6,7,8-tetrahydropyrido[3,4-d]pyrimidin-2-amine] | < 100 nM |  | 500 to 1000 nM
4 | Cc1c(N2CCc3cnc(Nc4ccc5c(c4)CN(C)C5=O)nc3C2)cnc2c1NCCO2 [Example 96, 2-methyl-5-((7-(8-methyl-2,3-dihydro-1H-pyrido[2,3-b][1,4]oxazin-7-yl)-5,6,7,8-tetrahydropyrido[3,4-d]pyrimidin-2-yl)amino)isoindolin-1-one] | < 100 nM |  | > 1000 nM
5 | Cc1c(N2CCc3cnc(Nc4ccc(OCCN5CCOCC5)cc4)nc3C2)cnc2c1NCCO2 [Example 97, 7-(8-methyl-2,3-dihydro-1H-pyrido[2,3-b][1,4]oxazin-7-yl)-N-(4-(2-morpholinoethoxy)phenyl)-5,6,7,8-tetrahydropyrido[3,4-d]pyrimidin-2-amine] | < 100 nM |  | 500 to 1000 nM
6 | Cc1c(N2CCc3cnc(Nc4ccc(CN5CCOCC5)cc4)nc3C2)cnc2c1NCCO2 [Example 99, 7-(8-methyl-2,3-dihydro-1H-pyrido[2,3-b][1,4]oxazin-7-yl)-N-(4-(morpholinomethyl)phenyl)-5,6,7,8-tetrahydropyrido[3,4-d]pyrimidin-2-amine] | < 100 nM | 500 to 1000 nM | 
7 | Cc1c(N2CCc3cnc(Nc4ccc(N5CCC(O)CC5)nc4)nc3C2)cnc2c1NCCO2 [Example 102, 1-(5-((7-(8-methyl-2,3-dihydro-1H-pyrido[2,3-b][1,4]oxazin-7-yl)-5,6,7,8-tetrahydropyrido[3,4-d]pyrimidin-2-yl)amino)pyridin-2-yl)piperidin-4-ol] | < 100 nM |  | > 1000 nM
8 | Cc1c(N2CCc3cnc(Nc4ccc(N5CCC(OC(F)(F)F)CC5)cc4)nc3C2)cnc2c1NCCO2 [Example 103, 7-(8-methyl-2,3-dihydro-1H-pyrido[2,3-b][1,4]oxazin-7-yl)-N-(4-(4-(trifluoromethoxy)piperidin-1-yl)phenyl)-5,6,7,8-tetrahydropyrido[3,4-d]pyrimidin-2-amine] | < 100 nM |  | > 1000 nM
9 | Cc1c(N2CCc3cnc(Nc4ccc5c(c4)CN(C)C5)nc3C2)cnc2c1NCCO2 [Example 104, 7-(8-methyl-2,3-dihydro-1H-pyrido[2,3-b][1,4]oxazin-7-yl)-N-(2-methylisoindolin-5-yl)-5,6,7,8-tetrahydropyrido[3,4-d]pyrimidin-2-amine] | < 100 nM | < 500 nM | 
10 | Cc1c(N2CCc3cnc(Nc4cnc5c(c4)CN(CC(F)F)CC5)nc3C2)cnc2c1NCCO2 [Example 105, N-(6-(2,2-difluoroethyl)-5,6,7,8-tetrahydro-1,6-naphthyridin-3-yl)-7-(8-methyl-2,3-dihydro-1H-pyrido[2,3-b][1,4]oxazin-7-yl)-5,6,7,8-tetrahydropyrido[3,4-d]pyrimidin-2-amine] | < 100 nM | 500 to 1000 nM | 
11 | Cc1c(N2CCc3cnc(Nc4cnc5c(c4)CN(CC(F)(F)F)CC5)nc3C2)cnc2c1NCCO2 [Example 106, 7-(8-methyl-2,3-dihydro-1H-pyrido[2,3-b][1,4]oxazin-7-yl)-N-(6-(2,2,2-trifluoroethyl)-5,6,7,8-tetrahydro-1,6-naphthyridin-3-yl)-5,6,7,8-tetrahydropyrido[3,4-d]pyrimidin-2-amine] | < 100 nM | > 1000 nM | 
12 | Cc1c(N2CCc3cnc(Nc4cnc5c(c4)CNCC5)nc3C2)cnc2c1NCCO2 [Example 108, 7-(8-methyl-2,3-dihydro-1H-pyrido[2,3-b][1,4]oxazin-7-yl)-N-(5,6,7,8-tetrahydro-1,6-naphthyridin-3-yl)-5,6,7,8-tetrahydropyrido[3,4-d]pyrimidin-2-amine] | < 100 nM | 500 to 1000 nM | 
13 | Cc1c(N2CCc3cnc(Nc4cnc5c(c4)CN(C)CC5)cc3C2)cnc2c1NCCO2 [Example 109, 6-methyl-N-(6-(8-methyl-2,3-dihydro-1H-pyrido[2,3-b][1,4]oxazin-7-yl)-5,6,7,8-tetrahydro-2,6-naphthyridin-3-yl)-5,6,7,8-tetrahydro-1,6-naphthyridin-3-amine] | 100 to 1000 nM | > 1000 nM | 
14 | COC1CCN(c2ccc(Nc3ncc4c(n3)CN(c3cnc5c(c3C)NCCO5)CC4)cc2)CC1 [Example 113, N-(4-(4-methoxypiperidin-1-yl)phenyl)-7-(8-methyl-2,3-dihydro-1H-pyrido[2,3-b][1,4]oxazin-7-yl)-5,6,7,8-tetrahydropyrido[3,4-d]pyrimidin-2-amine] | < 100 nM | 500 to 1000 nM | 
15 | Cc1c(N2CCc3cnc(Nc4cnc5c(c4)CN(C)CC5)nc3C2)cnc2c1NCCO2 [Example 115, 7-(8-methyl-2,3-dihydro-1H-pyrido[2,3-b][1,4]oxazin-7-yl)-N-(6-methyl-5,6,7,8-tetrahydro-1,6-naphthyridin-3-yl)-5,6,7,8-tetrahydropyrido[3,4-d]pyrimidin-2-amine] | < 100 nM | 500 to 1000 nM | 
16 | Cc1c(N)cncc1N1CCc2cnc(Nc3cnc4c(c3)CN(C)CC4)nc2C1 [Example 116, 7-(5-amino-4-methylpyridin-3-yl)-N-(6-methyl-5,6,7,8-tetrahydro-1,6-naphthyridin-3-yl)-5,6,7,8-tetrahydropyrido[3,4-d]pyrimidin-2-amine] | < 100 nM | > 1000 nM | 

Further lines, with some results ahead:

Row | IC50 [1] | IC50 [2, 3] | SMILES | IC50 [2, 4]
17 | < 100 nM | 500 to 1000 nM | COCCOc1ccc(Nc2ncc3c(n2)CN(c2cnc4c(c2C)NCCO4)CC3)cc1 [Example 98, N-(4-(2-methoxyethoxy)phenyl)-7-(8-methyl-2,3-dihydro-1H-pyrido[2,3-b][1,4]oxazin-7-yl)-5,6,7,8-tetrahydropyrido[3,4-d]pyrimidin-2-amine] | 
18 | < 100 nM | 500 to 1000 nM | Cc1c(N2CCc3cnc(Nc4ccc(C5CCN(C)CC5)cc4)nc3C2)cnc2c1NCCO2 [Example 100, 7-(8-methyl-2,3-dihydro-1H-pyrido[2,3-b][1,4]oxazin-7-yl)-N-(4-(1-methylpiperidin-4-yl)phenyl)-5,6,7,8-tetrahydropyrido[3,4-d]pyrimidin-2-amine] | 
19 | < 100 nM | 500 to 1000 nM | Cc1c(N2CCc3cnc(Nc4ccc(C5CCN(C)CC5)c(CO)c4)nc3C2)cnc2c1NCCO2 [Example 107, (5-((7-(8-methyl-2,3-dihydro-1H-pyrido[2,3-b][1,4]oxazin-7-yl)-5,6,7,8-tetrahydropyrido[3,4-d]pyrimidin-2-yl)amino)-2-(1-methylpiperidin-4-yl)phenyl)methanol] | 
20 | < 100 nM | 500 to 1000 nM | Cc1c(N2CCc3cnc(Nc4cnc5c(c4)CC(O)CC5)nc3C2)cnc2c1NCCO2 (stereo not drawn) [Example 110, 3-((7-(8-methyl-2,3-dihydro-1H-pyrido[2,3-b][1,4]oxazin-7-yl)-5,6,7,8-tetrahydropyrido[3,4-d]pyrimidin-2-yl)amino)-5,6,7,8-tetrahydroquinolin-6-ol] | 
21 | < 100 nM | 500 to 1000 nM | Cc1c(N2CCc3cnc(Nc4ccc(N5CCC(O)CC5)cc4)nc3C2)cnc2c1NCCO2 [Example 111, 1-(4-((7-(8-methyl-2,3-dihydro-1H-pyrido[2,3-b][1,4]oxazin-7-yl)-5,6,7,8-tetrahydropyrido[3,4-d]pyrimidin-2-yl)amino)phenyl)piperidin-4-ol] | 
22 | < 100 nM | 500 to 1000 nM | Cc1c(N2CCc3cnc(Nc4ccc(C5CCN(C)CC5)c(CC#N)c4)nc3C2)cnc2c1NCCO2 [Example 112, 2-(5-((7-(8-methyl-2,3-dihydro-1H-pyrido[2,3-b][1,4]oxazin-7-yl)-5,6,7,8-tetrahydropyrido[3,4-d]pyrimidin-2-yl)amino)-2-(1-methylpiperidin-4-yl)phenyl)acetonitrile] | 
23 | < 100 nM | > 1000 nM | Cc1ccncc1N1CCc2cnc(Nc3cnc4c(c3)CN(C)CC4)nc2C1 [Example 118, N-(6-methyl-5,6,7,8-tetrahydro-1,6-naphthyridin-3-yl)-7-(4-methylpyridin-3-yl)-5,6,7,8-tetrahydropyrido[3,4-d]pyrimidin-2-amine] | 
24 | < 100 nM | > 1000 nM | Cc1cnsc1N1CCc2cnc(Nc3cnc4c(c3)CN(C)CC4)nc2C1 [Example 119, N-(6-methyl-5,6,7,8-tetrahydro-1,6-naphthyridin-3-yl)-7-(4-methylisothiazol-5-yl)-5,6,7,8-tetrahydropyrido[3,4-d]pyrimidin-2-amine] | 
